The record followed here is PubChem BioAssay (NCI).

The structures appear in SMILES notation. “And” between values parts separate entries of the source, which are not always exact repeats. Identical values can stand only once.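 The compound was tested at five concentrations on cells cultured in 96-well plates, with a 48-hour exposure period. The concentration for 50% growth inhibition is given as GI50. At the TGI there is no net growth.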 Bounds are passed on as bounds.

Among the test systems are A498 renal; DLD-1 colon; DMS 273 small cell lung; HT29 colon; NCI-H226 lung; SF-268 CNS; SF-295 CNS; SF-539 CNS; SNB-75 CNS; HS 578T breast.
Holding throughout (assay): inhibition of tumour cell growth, NCI panel, 48 h

Take `BrC1=CC=C2NCCCCCCN=C3C=CC(Br)=CC=C3NCCCCCCN=C2C=C1`: the TGI in the assay with A498 renal, with DLD-1 colon, in the assay with DMS 273 small cell lung, with HT29 colon, with NCI-H226 lung and with SF-268 CNS was over 25.5 µM in each case. The TGI in the assay with SF-295 CNS, in the assay on SF-539 CNS and in the assay on SNB-75 CNS was over 25.5 µM throughout.
For `CC1(C)CC(=O)C(=[N+]=[N-])C(=O)C1`, the TGI in the assay with DLD-1 colon, with HT29 colon, in the assay on NCI-H226 lung, with SF-268 CNS, in the assay on SF-295 CNS and in the assay on SF-539 CNS was over 100 µM each time. In the assay on SNB-75 CNS, the TGI is over 100 µM.
Consider `c1cc[c]([Sn]([S]c2cccc3cccnc23)([S]c2cccc3cccnc23)[c]2ccccc2)cc1`, for which the GI50 in the assay on A498 renal is 0.0359 µM; in the assay with DMS 273 small cell lung, 0.293 µM; in the assay on HT29 colon, 0.222 µM; with NCI-H226 lung it was 0.175 µM; with SF-268 CNS, 0.331 µM; in the assay on SF-295 CNS, 0.353 µM. Besides, the GI50 with SF-539 CNS is 0.295 µM; with SNB-75 CNS, 0.192 µM. The TGI stood at 0.202 µM in the assay on A498 renal; 0.955 µM in the assay with DMS 273 small cell lung; 0.565 µM in the assay with HT29 colon; 1.06 µM in the assay with NCI-H226 lung; 1.48 µM with SF-268 CNS; 1.4 µM in the assay on SF-295 CNS. The values for the TGI with SF-539 CNS and with SNB-75 CNS were 0.893 µM and 1.16 µM, respectively.
On to `CC(C(=O)c1ccc(Cl)cc1)C1OC(=O)C(Cl)=C1Cl` (stereo not given), for which the TGI is over 100 µM in the assay with A498 renal; 49.9 µM in the assay with DLD-1 colon; over 100 µM in the assay on HT29 colon; over 100 µM with NCI-H226 lung; over 100 µM in the assay on SF-268 CNS; over 100 µM with SF-295 CNS. Besides, the figures for the TGI in the assay on SF-539 CNS and in the assay with SNB-75 CNS were 70.9 µM and over 100 µM, respectively.
For `CCCCN(CCCC)C(=O)C(=O)C(C)C(=O)CC` (stereo not given), the TGI in the assay on DLD-1 colon, in the assay on DMS 273 small cell lung, in the assay with HT29 colon, with NCI-H226 lung, in the assay on SF-268 CNS and with SF-295 CNS was over 100 µM each time. The TGI in the assay with SF-539 CNS and in the assay on SNB-75 CNS was over 100 µM throughout.
As for `CN1CCN(CCNc2ccc(CO)c3sc4ccccc4c(=O)c23)CC1`, the GI50 in the assay with A498 renal was 2.51 µM; in the assay on HS 578T breast, 10.7 µM. For the same compound, the TGI stood at 8.2 µM with A498 renal; 53.2 µM in the assay with DLD-1 colon; 14.1 µM in the assay with DMS 273 small cell lung; 31.8 µM in the assay with HS 578T breast; 7.86 µM with HT29 colon; 13 µM in the assay on NCI-H226 lung. Besides, the TGI came to 20.7 µM in the assay with SF-268 CNS, 17.5 µM in the assay on SF-295 CNS, 10.7 µM in the assay on SF-539 CNS and 14.5 µM in the assay on SNB-75 CNS.
Consider `CCCCCC(O)(CCCCC)CCCCCCCCC1=C(O)c2[nH]c(=O)ccc2C(=O)C1=O`, for which the TGI in the assay on A498 renal was 24.6 µM; with DLD-1 colon, 19.7 µM; with DMS 273 small cell lung, 12.6 µM; in the assay on HT29 colon, 30.5 µM; in the assay on NCI-H226 lung it was 28.8 µM; in the assay with SF-268 CNS, 19.1 µM. The TGI in the assay on SF-295 CNS turned out to be 16.4 µM; in the assay with SF-539 CNS, 20.3 µM; with SNB-75 CNS, 32.3 µM.
On to `COc1cc(Cl)c2c3c(c(C(=O)c4ccccc4)oc13)CCC2`, for which the TGI in the assay with A498 renal, in the assay on DLD-1 colon, in the assay with DMS 273 small cell lung, in the assay with HT29 colon, in the assay with SF-295 CNS and in the assay with SF-539 CNS was over 100 µM in each case. For the same compound, in the assay with SNB-75 CNS, the TGI is over 100 µM.
As to `COc1cc2c([C@@H](OC(=O)c3ccccc3)c3ccc4c(c3)OCO4)nccc2c(OC)c1OC`, the TGI in the assay with A498 renal was over 100 µM; in the assay with DLD-1 colon it was over 100 µM; with DMS 273 small cell lung, over 100 µM; in the assay with HT29 colon it was over 100 µM; in the assay on NCI-H226 lung, 94.5 µM; with SF-268 CNS, over 100 µM. For the same compound, the TGI with SF-295 CNS, with SF-539 CNS and with SNB-75 CNS was over 100 µM in each case.
As to `C#C[C@H](CCCC)OC(=O)N[C@H](C)c1ccccc1`, the TGI in the assay on DLD-1 colon, in the assay with DMS 273 small cell lung, in the assay on HT29 colon, in the assay on SF-268 CNS, with SF-295 CNS and in the assay on SNB-75 CNS was over 100 µM in each case.
Regarding `Cc1ccc(NC(=O)C2C(=O)N(c3ccc(C)c(C)c3)C(=O)/C2=N\NC(N)=S)cc1C` (stereo not given), the TGI in the assay with DLD-1 colon, in the assay on DMS 273 small cell lung, with HT29 colon, in the assay on NCI-H226 lung, in the assay with SF-268 CNS and in the assay on SF-295 CNS was over 100 µM in each case. Besides, the TGI with SF-539 CNS and in the assay on SNB-75 CNS was over 100 µM each time.
Take `O=C(O)/C(=C\c1ccccc1Cl)S(=O)(=O)c1ccccc1`: the TGI in the assay with A498 renal, with DLD-1 colon, in the assay on DMS 273 small cell lung, in the assay with HT29 colon, with SF-268 CNS and in the assay with SF-295 CNS was over 100 µM in each case. For the same compound, the TGI in the assay on SF-539 CNS and in the assay with SNB-75 CNS was over 100 µM throughout.
Regarding `c1cc(-c2cn[nH]c2)cc(-c2cn[nH]c2)c1`, the TGI was 89.7 µM with A498 renal; over 100 µM in the assay with DLD-1 colon; over 100 µM with DMS 273 small cell lung; over 100 µM in the assay with SF-268 CNS; over 100 µM with SF-295 CNS; 55.4 µM in the assay on SF-539 CNS. Moreover, the TGI in the assay on SNB-75 CNS came to 42.7 µM.
In the case of `CC1CCP(=O)(c2ccccc2)CC1` (stereo not given), the TGI in the assay with DLD-1 colon, in the assay on DMS 273 small cell lung, in the assay with HT29 colon, in the assay on SF-268 CNS, in the assay on SF-295 CNS and with SF-539 CNS was over 100 µM throughout. The compound also yielded a TGI in the assay with SNB-75 CNS of over 100 µM.
As to `Cn1c2ccccc2c(=O)c2c([N+](=O)[O-])ccc(NCCN)c21`, the TGI came out at 31 µM in the assay with A498 renal; 16.9 µM with DMS 273 small cell lung; 17.3 µM in the assay with HT29 colon; 27.2 µM in the assay with NCI-H226 lung; 26 µM with SF-268 CNS; 25 µM in the assay with SF-295 CNS. Besides, the TGI in the assay on SF-539 CNS worked out at 20.8 µM; in the assay with SNB-75 CNS, 26.8 µM.
As for `C[C@@H](Oc1ccc2[nH]nc(/C=C/c3cnn(CCO)c3)c2c1)c1c(Cl)cncc1Cl`, the GI50 was under 0.01 µM with A498 renal; 0.106 µM in the assay on HS 578T breast; 0.171 µM in the assay on HT29 colon; 0.0304 µM in the assay on NCI-H226 lung; 0.177 µM in the assay with SF-268 CNS; 0.0785 µM in the assay on SF-295 CNS. Also, the GI50 with SF-539 CNS is 0.035 µM; in the assay on SNB-75 CNS it was 0.159 µM. Besides, the TGI came out at 0.274 µM in the assay with A498 renal; 0.681 µM in the assay on HS 578T breast; 0.681 µM in the assay on HT29 colon; 1.49 µM in the assay on SF-268 CNS; 23.7 µM in the assay with SF-295 CNS; 0.268 µM with SF-539 CNS. The TGI in the assay on SNB-75 CNS is 0.561 µM.
For `CC(=O)c1cc2c(c3ccsc13)-c1ccccc1CC2`, the GI50 in the assay on A498 renal was 17.2 µM; in the assay with HS 578T breast, 2.17 µM; in the assay with HT29 colon, 58.4 µM; in the assay on NCI-H226 lung it was 38 µM; in the assay with SF-268 CNS, 43.4 µM; with SF-295 CNS, 26.5 µM. Besides, the results for the GI50 in the assay on SF-539 CNS and in the assay on SNB-75 CNS were 27.9 µM and over 100 µM, respectively. In addition, the TGI in the assay on A498 renal is 67.8 µM; with HS 578T breast, 44.6 µM; in the assay with HT29 colon, over 100 µM; with NCI-H226 lung, over 100 µM; with SF-268 CNS, over 100 µM; in the assay on SF-295 CNS it was over 100 µM. Moreover, the TGI in the assay on SF-539 CNS and in the assay on SNB-75 CNS was over 100 µM in each case.
In the case of `CC(=O)OC1CCC2(C)C(=CCC3C4CCC5(OC6CC(C)CN(C(C)=O)C6C5C)C(C)=C4C(=O)C32)C1` (stereo not given), the TGI came to 31.2 µM with A498 renal; 31.4 µM with HS 578T breast; 43.8 µM in the assay on HT29 colon; 45.8 µM with NCI-H226 lung; 31.4 µM in the assay on SF-268 CNS; 42 µM with SF-295 CNS. The figures for the TGI in the assay with SF-539 CNS and with SNB-75 CNS were 39.9 µM and 41.5 µM, respectively.
With `O=C1C(=O)c2ccccc2C(O)=C1CC=C(Cl)Cl`, the GI50 with A498 renal is 15.1 µM and 13.9 µM; with DLD-1 colon, 7.21 µM; with HS 578T breast it was 14 µM and 13.3 µM; in the assay on HT29 colon, 6.4 µM; in the assay with NCI-H226 lung it was 8.26 µM and 24.2 µM and 14.4 µM; in the assay with SF-268 CNS it was 9.02 µM and 7.72 µM. The GI50 in the assay on SF-295 CNS was 9.87 µM and 7.86 µM; with SF-539 CNS, 2.45 µM and 3.72 µM; in the assay with SNB-75 CNS it was 21.3 µM and 6.06 µM. For the same compound, the TGI was 57.8 µM and 96.2 µM and 51 µM in the assay on A498 renal; 178 µM in the assay with DLD-1 colon; 75.8 µM in the assay on DMS 273 small cell lung; 194 µM and > 100 µM with HS 578T breast; 141 µM and > 100 µM with HT29 colon; 39.9 µM and 135 µM and 91.1 µM in the assay with NCI-H226 lung. Moreover, the TGI in the assay on SF-268 CNS was 202 µM and > 100 µM; with SF-295 CNS it was 75.5 µM and 137 µM; in the assay with SF-539 CNS, 54.3 µM and 107 µM and > 100 µM; in the assay with SNB-75 CNS it was 65 µM and 169 µM and > 100 µM.
For `COc1ccc(C(=O)C(C(=O)C(=O)Nc2nccs2)c2ccc(OC)cc2)cc1` (stereo not given), the TGI in the assay on A498 renal, with DLD-1 colon, with DMS 273 small cell lung, in the assay with HT29 colon, in the assay with SF-268 CNS and in the assay with SF-539 CNS was over 100 µM throughout. Further, the TGI in the assay with SNB-75 CNS is over 100 µM.
Consider `COc1cc(NCc2ccccc2O)c2ncccc2c1`, for which the GI50 in the assay on A498 renal was 13.2 µM; with HS 578T breast, 24.2 µM; with HT29 colon, 19.4 µM; with NCI-H226 lung, 20.8 µM; with SF-268 CNS, 22.5 µM; in the assay with SF-295 CNS it was 20.6 µM. The GI50 with SF-539 CNS is 21 µM; in the assay with SNB-75 CNS, 8.52 µM. Besides, the TGI is 60.5 µM in the assay on A498 renal; over 100 µM with HS 578T breast; 94.1 µM in the assay on HT29 colon; over 100 µM in the assay with NCI-H226 lung; over 100 µM with SF-268 CNS; 67.4 µM in the assay on SF-295 CNS. The TGI in the assay with SF-539 CNS is over 100 µM; in the assay with SNB-75 CNS, 59.3 µM.
